Assay results as given in patent publication US20210352950A1 (priority 2019, published 2021).

Columns and labels:
HO-1 [1] = assay: HO-1 protein expression in CT26.WT (western blot); type: cell-based, murine; settings: vitamin C 350 μM 3 hours
Procedure: (§1) Cells were washed twice in ice-cold PBS and lysates were prepared in RIPA lysis buffer (50 mM Tris HCl pH 7.4, 150 mM NaCl, 1% NP-40, 0.25% deoxycholic acid, 1 mM EDTA) supplemented with protease and phosphatase inhibitors (protease inhibitor cocktail set III EDTA-free, Calbiochem, Cat. #: S39134; PhosStop, Roche), Samples were sonicated (bioruptor plus, diogenode) and centrifuged at 16.1 g for 30 minutes at 4° C. Tumor tissues were collected and snap frozen in liquid nitrogen immediately after mice were sacrificed, and stored in -80° C. until use. […] Protein concentrations were determined by BCA assay (Thermo Fisher Scientific, Cat. #: 23225). Proteins were diluted in 1× Laemmli sample buffer, boiled at 95° C. for 5 minutes and 30 μg of total proteins were separated by using SDS-PAGE and analyzed by western blotting by standard procedures. […] Membranes were incubated overnight at 4° C. with gentle shaking with the following primary antibodies: […] ADI-SPA894), FTH (1:1000, Cell Signaling, Cat. #: 3998), AMPK (1:1000, Cell Signaling, Cat. #: 2532), phospho-[…] AMPK (1:1000, Cell Signaling, Cat. #: 2535), eIF2a (1:1000, Cell signaling, Cat. #: 5324), phospho […] eIF2a (1:1000, Cell signaling, Cat. #: 3597), AKT (1:1000, Cell Signaling, Cat. #: 9272), phospho-[…] […] Bands intensity was quantified with NIH Image J software (version 1.48v).

[2] = intraperitoneal injection; Chen et al., 2007; 2008; cited from earlier work
HCT116 cells = assay: Muse cell viability assay (percentage of dead cells); settings: HCT116, CTR medium, vitamin C ≥0.3 mM (350 μM), 24 hours
[3] = test system: HCT116 subcutaneous tumors; assay: HCT116 xenograft tumor volume; type: in vivo, mouse; settings: NSG mice
phospho-AKT (serine 473) = assay: AKT phosphorylation (western blot); type: cell-based, human; settings: HCT116, STS 24 hours + vitamin C 350 μM 3 hours
Procedure: as §1

HO-1 [4] = assay: HO-1 expression in HCT116 (qPCR, western blot); type: cell-based, human; settings: HCT116, CTR, vitamin C 350 μM 3 hours as single intervention
Procedure: Cells were washed twice in ice-cold PBS and lysates were prepared in RIPA lysis buffer (50 mM Tris HCl pH 7.4, 150 mM NaCl, 1% NP-40, 0.25% deoxycholic acid, 1 mM EDTA) supplemented with protease and phosphatase inhibitors (protease inhibitor cocktail set III EDTA-free, Calbiochem, Cat. #: S39134; PhosStop, Roche), Samples were sonicated (bioruptor plus, diogenode) and centrifuged at 16.1 g for 30 minutes at 4° C. Tumor tissues were collected and snap frozen in liquid nitrogen immediately after mice were sacrificed, and stored in -80° C. until use. […] Protein concentrations were determined by BCA assay (Thermo Fisher Scientific, Cat. #: 23225). Proteins were diluted in 1× Laemmli sample buffer, boiled at 95° C. for 5 minutes and 30 μg of total proteins were separated by using SDS-PAGE and analyzed by western blotting by standard procedures. […] Membranes were incubated overnight at 4° C. with gentle shaking with the following primary antibodies: […] ADI-SPA894), FTH (1:1000, Cell Signaling, Cat. #: 3998), AMPK (1:1000, Cell Signaling, Cat. #: 2532), phospho-[…] […] Bands intensity was quantified with NIH Image J software (version 1.48v). […] Resulting cDNA (1/20 v/v) was analyzed by real-time polymerase reaction (qRT-PCR) using TaqMan MBG probes with FAM reporter dyes. […]

[5] = test system: phospho-AMPK (threonine 172); assay: AMPK phosphorylation (western blot); type: cell-based, human; settings: HCT116, STS 24 hours + vitamin C 350 μM 3 hours
Procedure: as §1

SMILES: O=C1O[C@H]([C@@H](O)CO)C(O)=C1O [vitamin C, ascorbic acid]
- HO-1 protein expression level (HO-1 [1]): up-regulates HO-1 expression level
- vitamin C level reached by parenteral (intraperitoneal) administration [2]: 3 mM
- cell death (HCT116 cells): able to induce cell death
- tumor progression, single interventions ([3]; 3-days FMD every week or vitamin C 4 g/kg i.p. twice a day): delayed tumor progression
- anti-cancer effect combined with fasting cycles ([3]; 3 cycles of fasting (2 days, water only) + vitamin C 4 g/kg i.p. twice a day): significantly enhanced
- AKT phosphorylation level (downregulated upon STS) (phospho-AKT (serine 473)): potentiated even further
- HO-1 mRNA and protein level (HO-1 [4]): significantly up-regulated HO-1 both at transcriptional and protein level
- AMPK phosphorylation level [5]: strongly up-regulated AMPK phosphorylation level
